This note sets out measurements from paper PMC8880039, “Kinetic and Molecular Docking Studies to Determine the Effect of Inhibitors on the Activity and Structure of Fused G6PD::6PGL Protein from Trichomonas vaginalis” (Molecules, 2022).

Assay type in all cases: biochemical
The target of test [1] is recombinant human G6PD (HsG6PD) (Homo sapiens, UniProt P11413). Briefly: Inhibition of recombinant human G6PD by the selected compounds. Conditions: compound 400 μM. The source says:
(§1) Here, we tested an in-house library of 55 compounds with some structural similarity to the previously reported molecules by Preuss et al.. […] In addition, we tested these synthetic compounds as potential recombinant human G6PD (HsG6PD) protein inhibitors. We observed that synthetic compounds, such as JMM-2, CNZ-3, CNZ-7, and CNZ-8, inhibited the fused TvG6PD::6PGL and the HsG6PD enzymes. For example, JMM-2 inhibited both enzymes by 81%, and CNZ-3 inhibited their catalytic activity by around 90%. Conversely, six of them, JMM-3, CNZ-16, CNZ-17, MCC-7, CMC-1, and TDA-5, inhibited the fused TvG6PD::6PGL enzyme activity in a more significant proportion regarding HsG6PD. […] The selective inhibition over the fused TvG6PD::6PGL enzyme may help improve the rational design of new drugs against this parasite without affecting the activity of HsG6PD.

In test [2] the target is T1, fused TvG6PD::6PGL enzyme (Trichomonas vaginalis, UniProt A2EC78). Put plainly: Orthogonal assay: IC50 by residual activity of TvG6PD::6PGL. The procedure:
Figure 2 Inactivation of the TvG6PD::6PGL enzyme with CNZ-3, MCC-7, JMM-3, and CNZ-17. The protein was adjusted at 0.2 mg/mL and incubated with increasing concentrations of each compound (0–800 μM) for 2 h at 37 °C. The IC50 values were determined by plotting the residual activity of the fused TvG6PD::6PGL enzyme versus compound concentrations. The assays were carried out in triplicate, and the data represent the mean ± standard error.
The compound concentration at which the enzyme loses 50% of its initial activity (IC50) was determined according to Hernández-Ochoa et al.. The G6PD::6PGL protein was adjusted to a 0.2 mg/mL concentration and incubated for 2 h at 37 °C, with increasing concentrations from 0 to 800 µM of the selected synthetic hit compounds. Then, the residual activity was measured, as mentioned above.

Test [3] deals with T1, fused TvG6PD::6PGL enzyme. Briefly: Time-course inactivation, second-order rate constant (k2). Conditions: read-out: second-order rate constant of inactivation (k2). On the procedure:
To determine the enzyme–inhibitor complex formation rate for each synthetic compound, we first calculated the pseudo-first-order inactivation constants (k1) by measuring the initial velocities at five fixed concentrations, at intervals between 0 and 120 min. […] We observed single-exponential decays of time-course inactivation for all the compounds examined in this study (Figure 3A,C,E,G). Additionally, as the synthetic compounds’ concentrations increased, the enzyme lost catalytic activity in a shorter incubation time; in contrast, the enzymatic activity of enzymes without compounds remained intact. The k1 values for each compound were calculated and plotted against their concentrations, and a linear behavior was obtained and fitted with the linear equation (Figure 3B,D,F,H). The calculated k2 values for JMM-3, CNZ-3, CNZ-17, and MCC-7 were: 0.33, 0.66, 0.38, and 0.26 M^−1 s^−1, respectively. It is important to mention that CNZ-3 formed the enzyme–inhibitor complex faster (k2 value of 0.66 M^−1 s^−1), regarding the CNZ-17 compound. This difference in the affinity to form the enzyme–inhibitor complex may be due to the p-chlorine moiety present in CNZ-3, unlike CNZ-17, which has a methoxy group in the same position.
Figure 3 Inactivation of fused G6PD::6PGL enzyme by chemical compounds. […] We obtained second-order rate constant values of inactivation (k2) of each of (B) JMM-3, (D) CNZ-3, (F) CNZ-17, and (H) CCM-7 by fitting the calculated k1 value versus the concentration of the compound. […] TEXT PRINTED IN THE PICTURE: (B) JMM-3: k2= 0.33 (M^-1* s^-1) | (D) CNZ-3: k2 = 0.66 (M^-1* s^-1) | (F) CNZ-17: k2 = 0.38 (M^-1* s^-1) | (H) MCC-7: k2 = 0.26 (M^-1* s^-1) DOUBTS OF THE COPYIST ABOUT THIS PICTURE: CNZ-3, k2: small print, 0.66 could be 0.68 or 0.86 / CNZ-17, k2: small print, 0.38 could be 0.36 or 0.88 / MCC-7, k2: small print, 0.26 could be 0.28; subscript of k not clearly readable / Panels D, F, H: the sign between M^-1 and s^-1 (asterisk) is not clearly readable
Second-order rate constants of inactivation (k2) were used to determine the inactivation rate of a chemical compound and the formation of the enzyme–inhibitor complex. Therefore, pseudo-first-order rate constants (k1) were determined for the recombinant G6PD::6PGL, adjusted at 0.2 mg/mL, and incubated with four different fixed concentrations of each compound at 37 °C. At the indicated times, a sample was withdrawn, and the residual activity was measured. First, we calculated the pseudo-first-order rate constants (k1) by fitting the residual activities data using a monoexponential decay equation: AR=A0 e^−kt , where AR is the residual activity at time t, A0 is the activity at the initial time, and k is the pseudo-first-order inactivation constant (min^−1). […]

Test [4] has as its target T1, fused TvG6PD::6PGL enzyme. Briefly: Determination of inhibition type (double reciprocal plots). Conditions: Lineweaver–Burk; for inhibition type for G6P substrate: G6P varied, NADP+ saturating; for inhibition type for NADP+ substrate: NADP+ varied, G6P saturating. An excerpt:
Figure 4 Determination of inhibition type of selected compounds. Lineweaver–Burk plots for the JMM-3, CNZ-3, CNZ-17, and MCC-7 compounds with G6P (A,C,E,G) or NADP^+ (B,D,F,H) substrates. The data represent the mean ± of three independent experiments, and standard errors were lower than 5%. […] Only the inhibition type (a class) is printed as a plot label, and it is uncertain whether that counts as a result. The concentrations in the plot legends stand alone and were left out.
To determine the inhibition mechanism of the four selected hit compounds over the T. vaginalis-fused G6PD::6PGL protein, we monitored the initial velocities in the presence of two fixed concentrations of each of the inhibitory compounds. The initial velocities were determined at different substrate concentrations (from 0 to 140 µM). […] Subsequently, the initial velocities for each physiological substrate (G6P and NADP^+) were analyzed using the double reciprocal plot method.

Test [5] deals with T1, fused TvG6PD::6PGL enzyme. Put plainly: Screening of in-house library for inhibition of fused TvG6PD::6PGL catalytic activity. As to conditions: read-out: G6PD::6PGL Inhibition (%), compound 400 μM, 0.2 mg/mL enzyme, 2 h at 37 °C.
Text: as §1
We tested an in-house library of 55 chemical compounds synthesized in the Medicinal Chemistry Laboratory from Facultad de Farmacia, Universidad Autónoma del Estado de Morelos. In-house libraries are advantageous in the discovery of novel bioactive small molecules. […] Subsequently, the residual activity was measured using a standard reaction mixture (1 mM G6P, 0.2 mM NADP^+, 0.1 mM Tris-HCl, and one mM MgCl2, pH 8.0). […]

T1 sequence (A2EC78 entry or part of it): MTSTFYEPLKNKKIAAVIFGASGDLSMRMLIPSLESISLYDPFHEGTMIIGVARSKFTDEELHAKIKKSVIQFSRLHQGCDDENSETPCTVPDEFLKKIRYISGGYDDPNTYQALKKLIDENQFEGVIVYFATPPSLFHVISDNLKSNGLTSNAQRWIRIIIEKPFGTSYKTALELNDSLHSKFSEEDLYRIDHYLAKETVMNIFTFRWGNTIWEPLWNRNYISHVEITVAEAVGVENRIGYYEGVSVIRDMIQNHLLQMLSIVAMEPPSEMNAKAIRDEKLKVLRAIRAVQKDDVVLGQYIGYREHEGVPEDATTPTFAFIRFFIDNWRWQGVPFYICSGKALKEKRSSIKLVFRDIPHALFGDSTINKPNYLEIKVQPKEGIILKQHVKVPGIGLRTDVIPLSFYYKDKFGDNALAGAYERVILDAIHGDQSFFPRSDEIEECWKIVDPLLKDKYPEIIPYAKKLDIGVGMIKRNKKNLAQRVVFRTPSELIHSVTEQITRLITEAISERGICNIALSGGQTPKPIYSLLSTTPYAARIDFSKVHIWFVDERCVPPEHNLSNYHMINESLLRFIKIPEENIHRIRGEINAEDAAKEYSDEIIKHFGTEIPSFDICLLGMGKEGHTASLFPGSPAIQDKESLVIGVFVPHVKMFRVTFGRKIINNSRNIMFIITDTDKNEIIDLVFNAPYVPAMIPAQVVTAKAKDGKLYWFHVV
Sequence of recombinant human G6PD (HsG6PD) (P11413 whole entry, the tested form may be a part): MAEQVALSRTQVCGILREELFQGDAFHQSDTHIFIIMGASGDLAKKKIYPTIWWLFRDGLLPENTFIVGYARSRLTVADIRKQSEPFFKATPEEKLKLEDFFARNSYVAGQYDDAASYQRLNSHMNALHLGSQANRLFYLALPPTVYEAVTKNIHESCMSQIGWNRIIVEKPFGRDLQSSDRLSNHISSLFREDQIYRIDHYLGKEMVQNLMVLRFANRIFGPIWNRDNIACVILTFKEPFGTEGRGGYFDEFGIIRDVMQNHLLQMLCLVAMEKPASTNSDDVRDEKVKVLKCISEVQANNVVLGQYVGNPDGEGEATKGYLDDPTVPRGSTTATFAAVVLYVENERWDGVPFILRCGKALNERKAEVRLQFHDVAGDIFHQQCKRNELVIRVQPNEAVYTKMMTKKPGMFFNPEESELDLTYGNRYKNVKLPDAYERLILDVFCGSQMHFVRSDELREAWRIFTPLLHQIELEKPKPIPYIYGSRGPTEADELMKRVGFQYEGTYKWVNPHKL

What is called IC50 is the concentration at which inhibition is half-maximal. For `O=C(Nc1ccc(Cl)cc1)Nc1ncc([N+](=O)[O-])s1` [CNZ-3], the inhibition at 400 µM in test [1] was roughly 90%. This molecule registered an IC50 in test [2] of 93 µM. Moreover, the kinact/KI in test [3] amounted to 0.66 M⁻¹ s⁻¹. In test [4], the “inhibition type for G6P substrate” value was “noncompetitive-type inhibition” and the “inhibition type for NADP+ substrate” value is reported as “competitive-type inhibition”.
As to `COc1ccc(NC(=O)Nc2ncc([N+](=O)[O-])s2)cc1` [CNZ-17], the inhibition at 400 µM in test [5] was greater than 50%. The inhibition at 400 µM in test [1] was 0%. Also, the IC50 in test [2] amounted to 356 µM. The kinact/KI in test [3] was determined as 0.38 M⁻¹ s⁻¹. For the same molecule, in test [4], the “inhibition type for G6P substrate” value was “uncompetitive-type inhibition” and the “inhibition type for NADP+ substrate” value is on record as “uncompetitive-type inhibition”.
For `COc1cc(CCC(=O)O)ccc1OCc1ccc(-c2ccccc2C#N)cc1` [JMM-3], in test [5], the inhibition at 400 µM was greater than 50%. The same molecule yielded an IC50 in test [2] of 155 µM. For the same molecule, the kinact/KI in test [3] stood at 0.33 M⁻¹ s⁻¹. Moreover, in test [4], the “inhibition type for G6P substrate” value is recorded as “uncompetitive-type inhibition” and the “inhibition type for NADP+ substrate” value was “uncompetitive-type inhibition”.
For `O=C(COc1ccc(/C=C2\SC(=O)NC2=O)cc1)NC1CCN(Cc2ccccc2)CC1` [MCC-7], the inhibition at 400 µM in test [1] worked out at 11%. The same molecule showed an IC50 in test [2] of 260 µM. For the same molecule, the kinact/KI in test [3] turned out to be 0.26 M⁻¹ s⁻¹. Further, in test [4], the “inhibition type for G6P substrate” value is “non-competitive-type inhibition” and the “inhibition type for NADP+ substrate” value is “uncompetitive type”.
